Reference: ChEMBL document CHEMBL1201862, “PubChem BioAssay data set” (2004)
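Five compound concentrations were applied to cells in 96-well plates for 48 hours; endpoints were derived by simple linear interpolation of the resulting dose-response curve. Abbreviation: GI50, concentration required for 50% inhibition of growth.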 Activity calls are given as the source filed them. Cut-off read from the data, not from the text of the source: active = GI50 up to about 1.1 µM and inactive = higher.

Legend:
Assay in all cases: growth of human tumour cells (NCI), 48 h
786-0 = test system: 786-0
A498 = test system: A498
ACHN = test system: ACHN
BT-549 = test system: BT-549
EKVX = test system: EKVX
HCT-116 = test system: HCT-116
HOP-62 = test system: HOP-62
HOP-92 = test system: HOP-92
Hs-578T = test system: Hs-578T
LOX IMVI = test system: LOX IMVI
MCF7 = test system: MCF7
NCI-H23 = test system: NCI-H23
OVCAR-3 = test system: OVCAR-3
OVCAR-4 = test system: OVCAR-4
RXF 393 = test system: RXF 393
SF-268 = test system: SF-268
SK-OV-3 = test system: SK-OV-3
SR = test system: SR
SW-620 = test system: SW-620
U-251 = test system: U-251

Row | SMILES | GI50 (786-0) | GI50 (A498) | GI50 (ACHN) | GI50 (BT-549) | GI50 (EKVX) | GI50 (HCT-116) | GI50 (HOP-62) | GI50 (HOP-92) | GI50 (Hs-578T) | GI50 (LOX IMVI) | GI50 (MCF7) | GI50 (NCI-H23) | GI50 (OVCAR-3) | GI50 (OVCAR-4) | GI50 (RXF 393) | GI50 (SF-268) | GI50 (SK-OV-3) | GI50 (SR) | GI50 (SW-620) | GI50 (U-251)
1 | N=C(N)SCCCN | 4.71 µM (inactive) | 32.1 µM (inactive) | 4.29 µM (inactive) | 4.06 µM (inactive) | 35.4 µM (inactive) | 3.86 µM (inactive) | 12.1 µM (inactive) | 4.94 µM (inactive) | 5.61 µM (inactive) | 3.3 µM (inactive) | 5.5 µM (inactive) | 6.1 µM (inactive) | 9.57 µM (inactive) | 6.5 µM (inactive) | 4.29 µM (inactive) | 5.3 µM (inactive) | 22.4 µM (inactive) | 3.3 µM (inactive) | 26.4 µM (inactive) | 6.11 µM (inactive)
2 | Cc1cccc(C)c1NC(=O)C(C#N)C1=C(Cl)C(=O)c2ccccc2C1=O (stereo not given) | 22 µM (inactive) | 14.8 µM (inactive) | 15.2 µM (inactive) | 14.6 µM (inactive) | 21.4 µM (inactive) | 15.4 µM (inactive) | 18 µM (inactive) | 10.2 µM (inactive) | 12.1 µM (inactive) | 9.33 µM (inactive) | 20 µM (inactive) | 18.7 µM (inactive) | 11.3 µM (inactive) | 16 µM (inactive) | > 32.8 µM (inactive) | 15.5 µM (inactive) | 20.9 µM (inactive) | 2.31 µM (inactive) | 11.9 µM (inactive) | 18.1 µM (inactive)
3 | O=C1/C(=C\c2ccccc2)C(NC2CCCCC2)c2ccccc21 (stereo not given) | 0.828 µM (active) | 18.6 µM (inactive) | 0.923 µM (active) | 2.36 µM (inactive) | 3.3 µM (inactive) | 0.959 µM (active) | 2.46 µM (inactive) | 1.96 µM (inactive) | 3.18 µM (inactive) | 1.66 µM (inactive) | 1.37 µM (inactive) | 0.76 µM (active) | 1.24 µM (inactive) | 1.79 µM (inactive) | 1.56 µM (inactive) | 3.46 µM (inactive) | 14 µM (inactive) | 0.206 µM (active) | 0.444 µM (active) | 1.73 µM (inactive)
4 | O=[N+]([O-])c1ccc(NN/N=N/c2ccc(-c3nc4ccccc4[nH]3)cc2)c([N+](=O)[O-])c1 | 36.3 µM (inactive) | 25.6 µM (inactive) | 19.4 µM (inactive) | 48.3 µM (inactive) | 17.4 µM (inactive) | 26.7 µM (inactive) | 42.6 µM (inactive) | 43.8 µM (inactive) | 64.9 µM (inactive) | 7.48 µM (inactive) | 4.27 µM (inactive) | 29 µM (inactive) | 28.4 µM (inactive) | 28.6 µM (inactive) | 47.3 µM (inactive) | 26.1 µM (inactive) | 94.6 µM (inactive) | 2.74 µM (inactive) | 68.5 µM (inactive) | 53.7 µM (inactive)
5 | CNC/C(Cl)=N/S(=O)(=O)c1ccc(C)cc1 | 9.93 µM (inactive) | 20 µM (inactive) | 15.8 µM (inactive) | 16.3 µM (inactive) | 15.6 µM (inactive) | 8.09 µM (inactive) | 14 µM (inactive) | 14.8 µM (inactive) | 28.8 µM (inactive) | 7.16 µM (inactive) | 7.94 µM (inactive) | 7.83 µM (inactive) | 12.4 µM (inactive) | 10 µM (inactive) | 2.2 µM (inactive) | 19.5 µM (inactive) | 22.8 µM (inactive) | 3.84 µM (inactive) | 9.16 µM (inactive) | 6.93 µM (inactive)
6 | COc1c(O)cc2c(c1O)C(=O)C(Cc1ccc(O)cc1)CO2 (stereo not given) | > 100 µM (inactive) | > 100 µM (inactive) | > 100 µM (inactive) | 46.7 µM (inactive) | > 100 µM (inactive) | 99.1 µM (inactive) | 94.6 µM (inactive) | 68.2 µM (inactive) | > 100 µM (inactive) | > 100 µM (inactive) | > 100 µM (inactive) | > 100 µM (inactive) | 93.1 µM (inactive) | 40.3 µM (inactive) | > 100 µM (inactive) | > 100 µM (inactive) | 68.9 µM (inactive) | 24.9 µM (inactive) | > 100 µM (inactive) | > 100 µM (inactive)
